GI50 and TGI data for nine compounds are collected here from PubChem BioAssay (NCI).

Where “and” joins values, the source holds several entries; their conditions need not be identical. Identical values can stand only once.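 Grown in 96-well plates, cells were treated for 48 hours with each compound at five concentrations. Insufficient inhibition: endpoint recorded as highest concentration tested. At the GI50, growth is halved. Definition used: TGI = concentration required for complete inhibition of growth.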

Assay in all cases: NCI-60 cell line screen, 48 h
The subject of test [1] is SR leukemia.
The subject of test [2] is SF-295 CNS.
Test [3] concerns COLO 205 colon.
Test [4] has as its system EKVX NSCLC.
Test [5] relates to KM12 colon.
For test [6], the system named is HCT-15 colon.
Test [7] relates to A549 NSCLC.
The subject of test [8] is HOP-62 NSCLC.
Test [9] relates to SF-268 CNS.
Test [10] has as its system OVCAR-4 ovarian.

Regarding `O=C(Nc1ncc(Cc2ccc(Cl)cc2)s1)c1ccc2c(c1)OCCO2`, the GI50 in test [1] was 0.0528 µM; in test [2], 0.0424 µM; in test [3], 0.0492 µM; in test [4], 0.412 µM; in test [5] it was 0.0414 µM; in test [6], 0.0477 µM. For the same compound, the GI50 was 0.0696 µM in [7], 0.0948 µM in [8], 0.786 µM in test [9] and 0.547 µM in test [10]. Also, the TGI in [1] was more than 100 µM; in [2], 2.02 µM; in test [3] it was 1.19 µM; in [4], more than 100 µM; in [5], more than 58 µM; in test [6], more than 100 µM. The TGI in [7] is more than 100 µM; in test [8] it was more than 41.6 µM; in [9] it was more than 100 µM; in test [10], more than 52.1 µM.
In the case of `OCCCNC(=S)Nc1ccc(-c2nc3ccccc3s2)cc1`, the GI50 in test [1] is 14.6 µM; in [2], 14.8 µM; in test [3], 30 µM; in test [4] it was 17 µM; in test [5], 17.8 µM; in [6], 16.7 µM. The GI50 in test [7] was 33.7 µM; in test [8], 31.8 µM; in test [9] it was 22.5 µM; in [10] it was 28.1 µM. Moreover, the TGI in test [1] was 50 µM; in [2], 45 µM; in test [3], more than 100 µM; in test [4], 83.2 µM; in test [5] it was 46.9 µM; in [6], 39.8 µM. Besides, the TGI in test [7], in test [8], in test [9] and in test [10] was more than 100 µM in each case.
On to `COc1cc([C@@H]2c3cc4c(cc3[C@H](O)[C@H]3COC(=O)[C@@H]23)OCO4)cc(OC)c1OC`, for which the GI50 is 0.222 µM in test [1]; 0.285 µM and 0.104 µM in test [2]; 0.347 µM and 0.132 µM in test [3]; 0.434 µM in test [4]; 0.343 µM and 0.158 µM in [5]; 0.415 µM and 0.327 µM in [6]. Further, the GI50 in test [7] is 0.732 µM and 0.333 µM; in [8], 0.533 µM and 0.226 µM; in test [9], 0.722 µM and 0.445 µM; in test [10], 1.03 µM and 4.92 µM. The TGI in test [1] was more than 10 µM; in [2] it was 1.61 µM; in test [3], 1.3 µM and 0.431 µM; in test [4], more than 100 µM; in [5], > 8.5 µM and 0.967 µM; in test [6], more than 100 µM. In addition, the TGI in [7], in [8], in test [9] and in test [10] was more than 100 µM throughout.
Take `Clc1ccc(CCn2cncn2)c(Cl)c1`: the TGI in test [1], in test [2], in test [3], in test [4], in test [5] and in test [6] was more than 100 µM in each case. Further, the TGI in [7], in [8], in test [9] and in test [10] was more than 100 µM throughout.
Turning to `COC(C(=O)[C@@H](O)[C@@H](C)O)[C@@H]1Cc2cc3cc(O[C@H]4C[C@@H](O[C@H]5C[C@@H](O)[C@H](O)C(C)O5)[C@H](O)C(C)O4)c(C)c(O)c3c(O)c2C(=O)[C@H]1O[C@H]1C[C@@H](O[C@H]2C[C@@H](O[C@H]3C[C@@H](O)[C@@H](O)C(C)O3)[C@@H](O)C(C)O2)[C@H](O)C(C)O1` (stereo partly drawn), the GI50 in test [1] was 0.112 µM; in [2] it was 0.196 µM; in test [4], 0.78 µM; in test [5], 0.207 µM; in test [6] it was 6.59 µM; in [7], 0.674 µM. Moreover, the GI50 is 0.189 µM in test [8], 0.207 µM in [9] and 0.571 µM in [10]. The TGI in test [1] is more than 32.5 µM; in test [2], more than 32.5 µM; in test [4] it was more than 32.5 µM; in test [5], 11.3 µM; in test [6] it was more than 32.5 µM; in [7], more than 32.5 µM. Besides, the TGI in test [8], in test [9] and in test [10] was more than 32.5 µM each time.
On to `CC(=O)O[C@@H]1CC(=O)O[C@@H]2C[C@@H](CC/C(Cl)=C/C/C=C\1C)O[C@@H]2CO`, for which the GI50 in test [1] is more than 25 µM; in test [3], more than 25 µM; in test [4], more than 15 µM; in [6] it was more than 25 µM; in test [7] it was more than 25 µM; in test [8] it was more than 25 µM. In addition, the GI50 in test [9] is more than 25 µM. Also, the TGI in test [1] is more than 25 µM; in test [2], more than 25 µM; in [3], more than 25 µM; in test [4], more than 25 µM; in test [5] it was more than 6.4 µM; in test [6], more than 25 µM. Besides, the TGI in [7], in test [8] and in test [9] was more than 25 µM in each case.
Take `COc1cc2c(/C=C3/C(=O)Nc4c3ccc3ccccc43)c(Cl)[nH]c2cc1C`: the GI50 in test [1] was less than 0.005 µM; in test [2] it was 0.00761 µM; in [3], 0.0715 µM; in [4], 0.222 µM; in [5], 0.0124 µM; in [6] it was 0.0427 µM. For the same compound, the figures for the GI50 in test [7], in test [8] and in [9] were 0.0443 µM, 0.0144 µM and 0.0218 µM, respectively. In addition, the TGI in test [1] is less than 0.005 µM; in [2] it was 0.0237 µM; in test [4], more than 36.3 µM; in test [6], 0.143 µM; in test [7], 0.778 µM; in [8], 4.08 µM. Besides, the TGI in test [9] is more than 14.6 µM.
In the case of `Cc1cc2c(=O)cc(-c3ccc(C(=O)O)cc3)oc2c(C(=O)O)c1C`, the TGI in [1], in test [2], in [3], in test [4], in test [5] and in test [6] was more than 100 µM in each case. Also, the TGI in test [7], in test [8] and in test [10] was more than 100 µM in each case.
For the compound `O=C(Cc1nc2ccccc2s1)NC12CC3CC(CC(C3)C1)C2`, the TGI in [1], in test [2], in test [4], in test [5], in test [6] and in [7] was more than 100 µM throughout. Besides, the TGI in [8], in test [9] and in test [10] was more than 100 µM throughout.
